Reference: patent US10047051B2, “Substituted pyridines and method of use” (AbbVie S.á{acute over (.)}r.l., priority 2015, dated 2018)

Columns and labels:
CFTR ΔF508 mutant = molecular target: T1, CFTR ΔF508 mutant (Homo sapiens, UniProt P13569, DEL508-508); test: YFP-halide influx assay for the CFTR-ΔF508 mutation (CFBE41o- cells); assay type: cell-based; conditions: forskolin 10.67 μM; for EC50: from (1−F/F0) vs concentration plot
T1 construct: expressed in transfected cells; host or cells: CFBE41o- cells, adenoviral transduction
T1 sequence (P13569 with tags, fused parts or gaps DEL508-508): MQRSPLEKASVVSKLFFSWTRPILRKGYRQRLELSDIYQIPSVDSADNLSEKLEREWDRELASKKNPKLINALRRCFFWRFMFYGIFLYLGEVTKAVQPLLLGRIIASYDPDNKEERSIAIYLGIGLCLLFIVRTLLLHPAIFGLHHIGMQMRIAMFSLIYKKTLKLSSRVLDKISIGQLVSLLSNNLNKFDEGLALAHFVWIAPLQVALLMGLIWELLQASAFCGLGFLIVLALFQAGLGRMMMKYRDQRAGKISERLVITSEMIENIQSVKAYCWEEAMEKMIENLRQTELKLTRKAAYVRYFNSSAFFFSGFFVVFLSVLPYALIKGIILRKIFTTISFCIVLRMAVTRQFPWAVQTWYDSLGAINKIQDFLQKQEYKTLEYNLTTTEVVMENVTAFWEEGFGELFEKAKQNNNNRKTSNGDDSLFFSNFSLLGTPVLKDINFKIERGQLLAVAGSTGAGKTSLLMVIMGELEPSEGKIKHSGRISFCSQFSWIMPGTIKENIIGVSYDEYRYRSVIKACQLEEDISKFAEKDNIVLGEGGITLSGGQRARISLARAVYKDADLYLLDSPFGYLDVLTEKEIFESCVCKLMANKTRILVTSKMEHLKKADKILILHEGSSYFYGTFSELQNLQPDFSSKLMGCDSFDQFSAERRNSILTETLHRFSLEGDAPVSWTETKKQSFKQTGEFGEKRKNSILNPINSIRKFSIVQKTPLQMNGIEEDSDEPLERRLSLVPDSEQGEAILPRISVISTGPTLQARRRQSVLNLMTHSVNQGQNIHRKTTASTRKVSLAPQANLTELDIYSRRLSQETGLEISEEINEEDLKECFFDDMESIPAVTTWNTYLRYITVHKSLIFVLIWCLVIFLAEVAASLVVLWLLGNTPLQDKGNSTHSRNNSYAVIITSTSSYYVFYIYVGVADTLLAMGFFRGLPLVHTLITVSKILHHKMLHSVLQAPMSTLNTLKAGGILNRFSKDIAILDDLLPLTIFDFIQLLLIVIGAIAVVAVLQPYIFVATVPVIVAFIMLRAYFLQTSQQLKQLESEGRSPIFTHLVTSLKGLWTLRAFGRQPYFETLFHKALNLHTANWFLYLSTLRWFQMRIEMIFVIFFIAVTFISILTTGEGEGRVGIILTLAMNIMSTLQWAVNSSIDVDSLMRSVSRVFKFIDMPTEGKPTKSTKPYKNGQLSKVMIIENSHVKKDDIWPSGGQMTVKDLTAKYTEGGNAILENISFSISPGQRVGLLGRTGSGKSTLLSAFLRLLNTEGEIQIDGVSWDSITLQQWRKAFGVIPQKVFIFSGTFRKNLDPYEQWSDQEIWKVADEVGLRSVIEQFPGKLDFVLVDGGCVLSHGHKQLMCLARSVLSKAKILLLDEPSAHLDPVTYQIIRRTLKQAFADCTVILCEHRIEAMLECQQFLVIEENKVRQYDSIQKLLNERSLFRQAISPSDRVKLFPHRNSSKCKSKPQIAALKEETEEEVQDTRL
Text: The YFP halide influx assay measured the functionality of the cystic fibrosis Transmembrane Conductance regulator (CFTR) channels in the cystic fibrosis bronchial epithelium cell line CFBE41o-. The assay was used to evaluate the capacity of compounds to increase the open probability of existing CFTR channels in the membrane. It makes use of the observation that the yellow fluorescent protein (YFP) variant YFP H148Q, I152L, F47L has its fluorescence substantially quenched by halide ions like Cl^− and I^− (Galietta, L. J. V., Haggie, P. M., Verkman, A. S., 2001. Green fluorescent protein-based halide indicators with improved chloride and iodide affinities. FEBS Lett. 499, 220-224. doi:10.1016/S0014-5793(01)02561-3; Nagai, T., Ibata, K., Park, E. S., Kubota, M., Mikoshiba, K., Miyawaki, A., 2002. A variant of yellow fluorescent protein with fast and efficient maturation for cell-biological applications. Nat. Biotechnol. 20, 87-90. doi: 10.1038/nbt0102-87).
For this purpose, CFBE41o-cells were seeded in 384 well plates (3000 CFBE cells/well). One day after seeding, the CFBE cells were transduced with adenoviral vectors that direct the expression of the CFTR ΔF508 mutant and of the YFP reporter. Cells were incubated at 27° C., 5% CO2 for 24 hours so as to allow for the proper folding and migration to the membrane of the CFTR channel or treated with a CFTR modulator during 24 hours at 37° C.
(§1) The I-induced quenching of fluorescence was recorded on an immediately after injection of iodide for 2 minutes on an FDSS/μCell (Hamamatsu). The capacity of a compound to increase the channel opening was directly correlated with the decrease in fluorescence, and was expressed as (1−(fluorescence after 36 seconds (F)/fluorescence before injection (F0))) and an EC50 was derived from a (1−F/F0) vs compound concentration plot.

CFTR G551D mutant = molecular target: T2, CFTR G551D mutant (Homo sapiens, UniProt P13569, G551D); test: YFP-halide influx assay for the CFTR-G551D mutation (HEK293 cells); assay type: cell-based; conditions: forskolin 10.67 μM
T2 construct: expressed in transfected cells; host or cells: HEK293 cells, reverse transfection with plasmids
T2 sequence (P13569 whole entry G551D): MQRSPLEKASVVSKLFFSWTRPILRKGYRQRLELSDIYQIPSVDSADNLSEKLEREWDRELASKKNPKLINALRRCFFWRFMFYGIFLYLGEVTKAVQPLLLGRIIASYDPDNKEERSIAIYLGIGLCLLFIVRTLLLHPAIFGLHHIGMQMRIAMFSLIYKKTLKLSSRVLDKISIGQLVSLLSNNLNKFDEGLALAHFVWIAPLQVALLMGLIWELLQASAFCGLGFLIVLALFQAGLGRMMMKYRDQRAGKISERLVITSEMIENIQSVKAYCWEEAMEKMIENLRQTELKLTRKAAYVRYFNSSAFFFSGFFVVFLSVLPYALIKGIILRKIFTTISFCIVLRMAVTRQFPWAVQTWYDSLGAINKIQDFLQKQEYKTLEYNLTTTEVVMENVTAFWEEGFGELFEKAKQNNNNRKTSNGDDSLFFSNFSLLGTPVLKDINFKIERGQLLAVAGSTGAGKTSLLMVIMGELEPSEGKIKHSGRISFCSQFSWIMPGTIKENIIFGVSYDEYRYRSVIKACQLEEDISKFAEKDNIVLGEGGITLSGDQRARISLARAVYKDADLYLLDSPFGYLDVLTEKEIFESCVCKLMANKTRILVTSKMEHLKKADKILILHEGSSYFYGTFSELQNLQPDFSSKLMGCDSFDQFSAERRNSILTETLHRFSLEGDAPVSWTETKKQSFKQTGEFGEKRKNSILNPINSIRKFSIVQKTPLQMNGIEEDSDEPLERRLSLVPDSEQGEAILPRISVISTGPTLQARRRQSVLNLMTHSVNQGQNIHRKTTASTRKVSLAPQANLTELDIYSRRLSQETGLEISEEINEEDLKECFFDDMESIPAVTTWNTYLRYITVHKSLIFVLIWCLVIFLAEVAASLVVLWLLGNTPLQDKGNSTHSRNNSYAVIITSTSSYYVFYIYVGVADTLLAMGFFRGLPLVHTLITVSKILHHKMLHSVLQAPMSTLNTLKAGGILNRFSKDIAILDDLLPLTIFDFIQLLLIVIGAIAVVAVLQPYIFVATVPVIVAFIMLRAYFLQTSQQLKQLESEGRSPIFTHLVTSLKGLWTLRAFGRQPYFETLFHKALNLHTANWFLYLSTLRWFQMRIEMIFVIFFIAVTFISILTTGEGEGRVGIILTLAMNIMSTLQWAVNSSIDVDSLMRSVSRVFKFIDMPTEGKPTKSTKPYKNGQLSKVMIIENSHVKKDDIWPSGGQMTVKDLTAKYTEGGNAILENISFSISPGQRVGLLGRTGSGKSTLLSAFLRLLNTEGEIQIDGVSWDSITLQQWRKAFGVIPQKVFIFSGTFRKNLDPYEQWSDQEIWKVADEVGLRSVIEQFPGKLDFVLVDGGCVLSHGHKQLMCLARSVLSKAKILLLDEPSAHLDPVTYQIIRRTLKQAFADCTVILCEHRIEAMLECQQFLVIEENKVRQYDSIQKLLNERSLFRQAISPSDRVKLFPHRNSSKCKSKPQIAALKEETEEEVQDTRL
Text: The YFP halide influx assay measured the functionality of the cystic fibrosis Transmembrane Conductance regulator (CFTR) channels. The assay was used to evaluate the capacity of compounds to increase the channel opening of existing mutant CFTR channels in the membrane. It makes use of the observation that the yellow fluorescent protein (YFP) variant YFP H148Q, I152L, F47L has its fluorescence substantially quenched by halide ions like Cl^− and I^− (Galietta, L. J. V., Haggie, P. M., Verkman, A. S., 2001. Green fluorescent protein-based halide indicators with improved chloride and iodide affinities. FEBS Lett. 499, 220-224. doi:10.1016/S0014-5793(01)02561-3).
For this purpose, HEK293-cells were seeded in 96 well plates. During seeding, the cells were reverse-transfected with plasmid vectors that direct the expression of the CFTR G551D mutant and of the YFP reporter. Cells were incubated at 37° C., 5% CO2 for 24 hours so as to allow for sufficient expression of the CFTR protein.
as §1, with “I^−-induced” for “I-induced”, “recorded” for “recorded on an”, “I^−” for “iodide”, “7 seconds.” for “2 minutes on an FDSS/μCell (Hamamatsu).”, “7” for “36”

| % Activation (CFTR ΔF508 mutant) [%] | EC50 (CFTR ΔF508 mutant) [nM] | % Activation (CFTR G551D mutant) [%] | EC50 (CFTR G551D mutant) [nM] | SMILES |
| --- | --- | --- | --- | --- |
| 98.3 | 6.3 | 90.4 | 1200 | Nc1cc(S(=O)(=O)c2ccccc2OC(F)(F)F)cnc1C(=O)N[C@@H]1COCC[C@@H]1O (racemic) [Compound 83, rac-3-amino-N-[(3R,4S)-4-hydroxytetrahydro-2H-pyran-3-yl]-5-{[2-(trifluoromethoxy)phenyl]sulfonyl}pyridine-2-carboxamide] |
| 98.6 | 47.1 | 47.8 | 1140 | Nc1cc(S(=O)(=O)c2ccc(C(F)(F)F)cc2)cnc1C(=O)N[C@@H]1COCC[C@@H]1O (racemic) [Compound 216, rac-3-amino-N-[(3R,4S)-4-hydroxytetrahydro-2H-pyran-3-yl]-5-{[4-(trifluoromethyl)phenyl]sulfonyl}pyridine-2-carboxamide] |
| 105.8 | 44.4 | 43.8 | 1520 | Nc1cc(S(=O)(=O)c2ccc(C(F)(F)F)cc2F)cnc1C(=O)N[C@@H]1COCC[C@@H]1O (racemic) [Compound 218, rac-3-amino-5-{[2-fluoro-4-(trifluoromethyl)phenyl]sulfonyl}-N-[(3R,4S)-4-hydroxytetrahydro-2H-pyran-3-yl]pyridine-2-carboxamide] |
| 37.1 | > 667 | 0.3 | – | C[C@H](O)CNC(=O)c1ncc(S(=O)(=O)N2CCCC2CO)cc1N (mixture of isomers) [Compound 268, 3-amino-5-{[2-(hydroxymethyl)pyrrolidin-1-yl]sulfonyl}-N-[(2S)-2-hydroxypropyl]pyridine-2-carboxamide] |
| 92.1 | 206 | 43.6 | 5770 | Nc1cc(S(=O)(=O)c2ccc(OC(F)(F)F)cc2)cnc1C(=O)N1CCC(O)C1 (centres unmarked) [Compound 4, (3-amino-5-{[4-(trifluoromethoxy)phenyl]sulfonyl}pyridin-2-yl)(3-hydroxypyrrolidin-1-yl)methanone] |
| 14.8 | > 2000 | 1.7 | > 10000 | CN1CCC(O)(CNC(=O)c2ncc(S(=O)(=O)c3ccc(OC(F)(F)F)cc3)cc2N)CC1 [Compound 5, 3-amino-N-[(4-hydroxy-1-methylpiperidin-4-yl)methyl]-5-{[4-(trifluoromethoxy)phenyl]sulfonyl}pyridine-2-carboxamide] |
| 109.5 | 72.1 | 67.5 | 1200 | Nc1cc(S(=O)(=O)c2ccc(OC(F)(F)F)cc2)cnc1C(=O)NCC1COCCO1 (centres unmarked) [Compound 8, 3-amino-N-(1,4-dioxan-2-ylmethyl)-5-{[4-(trifluoromethoxy)phenyl]sulfonyl}pyridine-2-carboxamide] |
| 97.5 | 161 | 59.5 | > 3330 | Nc1cc(S(=O)(=O)c2ccc(OC(F)(F)F)cc2)cnc1C(=O)NCCN1CCOCC1 [Compound 9, 3-amino-N-[2-(morpholin-4-yl)ethyl]-5-{[4-(trifluoromethoxy)phenyl]sulfonyl}pyridine-2-carboxamide] |
| 101.0 | 184 | – | – | Cc1ccc(C(CO)NC(=O)c2ncc(S(=O)(=O)c3ccc(OC(F)(F)F)cc3)cc2N)cc1 (centres unmarked) [Compound 41, 3-amino-N-[2-hydroxy-1-(4-methylphenyl)ethyl]-5-{[4-(trifluoromethoxy)phenyl]sulfonyl}pyridine-2-carboxamide] |
| 92.6 | 236 | – | – | CCNC(=O)C(C)NC(=O)c1ncc(S(=O)(=O)c2ccc(OC(F)(F)F)cc2)cc1N (centres unmarked) [Compound 43, 3-amino-N-[1-(ethylamino)-1-oxopropan-2-yl]-5-{[4-(trifluoromethoxy)phenyl]sulfonyl}pyridine-2-carboxamide] |
| 73.9 | 323 | – | – | Nc1cc(S(=O)(=O)c2ccc(OC(F)(F)F)cc2)cnc1C(=O)NC(CO)CO [Compound 44, 3-amino-N-(1,3-dihydroxypropan-2-yl)-5-{[4-(trifluoromethoxy)phenyl]sulfonyl}pyridine-2-carboxamide] |
| 93.6 | 83.7 | – | – | Nc1cc(S(=O)(=O)c2ccc(OC(F)(F)F)cc2)cnc1C(=O)NCCCCO [Compound 45, 3-amino-N-(4-hydroxybutyl)-5-{[4-(trifluoromethoxy)phenyl]sulfonyl}pyridine-2-carboxamide] |
| 84.8 | 503 | – | – | CNC(=O)[C@@H](NC(=O)c1ncc(S(=O)(=O)c2ccc(OC(F)(F)F)cc2)cc1N)C(C)(C)C [Compound 47, 3-amino-N-[(2S)-3,3-dimethyl-1-(methylamino)-1-oxobutan-2-yl]-5-{[4-(trifluoromethoxy)phenyl]sulfonyl}pyridine-2-carboxamide] |
| 103.0 | 21.1 | – | – | CCNC(=O)CNC(=O)c1ncc(S(=O)(=O)c2ccc(OC(F)(F)F)cc2)cc1N [Compound 48, 3-amino-N-[2-(ethylamino)-2-oxoethyl]-5-{[4-(trifluoromethoxy)phenyl]sulfonyl}pyridine-2-carboxamide] |
| 132.0 | 125 | – | – | CC(C)[C@H](NC(=O)c1ncc(S(=O)(=O)c2ccc(OC(F)(F)F)cc2)cc1N)C(N)=O [Compound 49, 3-amino-N-[(2S)-1-amino-3-methyl-1-oxobutan-2-yl]-5-{[4-(trifluoromethoxy)phenyl]sulfonyl}pyridine-2-carboxamide] |
| 37.6 | > 2000 | – | – | CC(CC(N)=O)NC(=O)c1ncc(S(=O)(=O)c2ccc(OC(F)(F)F)cc2)cc1N (centres unmarked) [Compound 55, 3-amino-N-(4-amino-4-oxobutan-2-yl)-5-{[4-(trifluoromethoxy)phenyl]sulfonyl}pyridine-2-carboxamide] |
| 99.4 | 369 | – | – | CC(C)C[C@H](NC(=O)c1ncc(S(=O)(=O)c2ccc(OC(F)(F)F)cc2)cc1N)C(N)=O [Compound 56, N^2-[(3-amino-5-{[4-(trifluoromethoxy)phenyl]sulfonyl}pyridin-2-yl)carbonyl]-L-leucinamide] |
| 96.5 | 95.5 | – | – | CC[C@H](NC(=O)c1ncc(S(=O)(=O)c2ccc(OC(F)(F)F)cc2)cc1N)C(N)=O [Compound 93, 3-amino-N-[(2S)-1-amino-1-oxobutan-2-yl]-5-{[4-(trifluoromethoxy)phenyl]sulfonyl}pyridine-2-carboxamide] |
| 105.0 | 245 | – | – | COc1ccc(C(CO)NC(=O)c2ncc(S(=O)(=O)c3ccc(OC(F)(F)F)cc3)cc2N)cc1 (centres unmarked) [Compound 96, 3-amino-N-[2-hydroxy-1-(4-methoxyphenyl)ethyl]-5-{[4-(trifluoromethoxy)phenyl]sulfonyl}pyridine-2-carboxamide] |
| 26.7 | > 2000 | – | – | Nc1cc(S(=O)(=O)c2ccc(OC(F)(F)F)cc2)cnc1C(=O)NC1(C(F)(F)F)CCOCC1 [Compound 193, 3-amino-5-{[4-(trifluoromethoxy)phenyl]sulfonyl}-N-[4-(trifluoromethyl)tetrahydro-2H-pyran-4-yl]pyridine-2-carboxamide] |
| 85.2 | 42.5 | – | – | Nc1cc(S(=O)(=O)c2ccccc2)c(C2CC2)nc1C(=O)NCCO [Compound 260, 3-amino-6-cyclopropyl-N-(2-hydroxyethyl)-5-(phenylsulfonyl)pyridine-2-carboxamide] |
| 82.1 | 40 | – | – | COC[C@H](O)CNC(=O)c1ncc(S(=O)(=O)c2ccccc2)cc1N [Compound 296, 3-amino-N-[(2R)-2-hydroxy-3-methoxypropyl]-5-(phenylsulfonyl)pyridine-2-carboxamide] |
